Measured values from patent US20250255857A1, “METHODS OF TREATING ANDROGEN RECEPTOR-INDEPENDENT PROSTATE CANCER” (FOGHORN THERAPEUTICS INC., priority 2022, published 2025).
Where “and” joins values, the source holds several entries; their conditions need not be identical. Equal values may be shown once. Read-outs that look alike come from different tables or passages of the source.

Columns and labels:
[1] = molecular target: T1, BRD9 protein (Homo sapiens, UniProt Q9H8M2); experiment: BRD9 levels in DU145 tumors by Western Blotting (PK/PD cohort); format: in vivo; settings: for BRD9 protein degradation (Western Blot): 72 h post last dose, P<0.05 vs. vehicle control
T1 construct: endogenous in cells; host or cells: DU145 human prostate cancer cells grown as subcutaneous xenograft tumors in mice
T1 sequence (Q9H8M2 1-597): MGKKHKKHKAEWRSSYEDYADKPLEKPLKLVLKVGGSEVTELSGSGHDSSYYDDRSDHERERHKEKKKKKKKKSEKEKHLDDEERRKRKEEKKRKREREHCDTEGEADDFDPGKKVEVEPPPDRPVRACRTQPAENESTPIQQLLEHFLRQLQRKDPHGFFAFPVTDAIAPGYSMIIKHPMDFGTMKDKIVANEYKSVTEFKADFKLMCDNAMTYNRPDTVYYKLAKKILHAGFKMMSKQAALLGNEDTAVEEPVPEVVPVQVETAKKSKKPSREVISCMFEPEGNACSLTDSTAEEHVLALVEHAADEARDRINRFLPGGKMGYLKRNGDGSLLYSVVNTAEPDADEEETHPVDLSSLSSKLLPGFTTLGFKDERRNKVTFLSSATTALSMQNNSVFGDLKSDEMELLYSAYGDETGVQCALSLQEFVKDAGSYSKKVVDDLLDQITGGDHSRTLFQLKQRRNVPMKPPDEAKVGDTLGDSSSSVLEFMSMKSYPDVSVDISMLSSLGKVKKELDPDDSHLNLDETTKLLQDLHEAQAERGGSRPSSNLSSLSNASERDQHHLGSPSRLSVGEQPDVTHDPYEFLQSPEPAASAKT
Experimental: (§1) Procedure: The experimental details of the studies, including tumor model, mouse strain, cell number implanted, vehicle used, days of treatment, treatment details, and average tumor size at start of dosing are outlined in Table 3. All study mice were obtained and the studies were conducted at Pharmaron. Each mouse was inoculated subcutaneously on the right flank with the single cell suspension of DU145 human prostate cancer tumor cells (5×10^6) in 0.1 mL with Matrigel (1:1) in MEM with 10% FBS for tumor development.
(§2) Based on tumor volume, mice were randomly assigned to respective groups using a computer-generated randomization procedure. The study groups and the number of animals per group are shown in Table 4A (efficacy study) and Table 4B (PKPD study).
(§3) Treatment for the PKPD cohort was initiated when the mean tumor volume reached 281 mm^3 on Day 14 post tumor cell inoculation. Animals were randomized into 5 groups: 1) Vehicle Control, 3 doses intraperitoneally (IP); 2) Compound 1 at 1 mg/kg, single dose IP; 3) Compound 1 at 15 mg/kg, single dose IP; 4) Compound 1 at 1 mg/kg, 3 doses IP; and 5) Compound 1 at 15 mg/kg, 3 doses IP.
(§4) In the case of an animal reaching a tumor size exceeding 2000 mm^3, the entire group was terminated. Plasma and tumor samples were collected at 4 hours and 72 hours post last dose for all groups. For the PKPD Cohort, the tumors were cut into 2 pieces: one for Western Blotting (WB) with BRD9 analysis, and one for RNAseq analysis. For the Efficacy Cohort, the tumors were analyzed for BRD9 levels by Western Blotting (WB).

[2] = test system: PC3 prostate xenograft tumors; experiment: PC3 prostate xenograft tumor model, tumor growth inhibition; format: in vivo, mice
Experimental: (§5) Procedure: The experimental details of the studies, including tumor model, mouse strain, cell number implanted, vehicle used, days of treatment, treatment details, and average tumor size at start of dosing are outlined in Table 1. All study mice were purchased from Beijing Anikeeper Biotech and Matrigel was utilized as a basement membrane for all xenograft models. All xenografts were engrafted subcutaneously in the right flank region. The vehicles and Compound 1 (3 mg/kg) were administered twice weekly (BIW) intraperitoneally and enzalutamide (30 mg/kg) was administered orally once daily (QD), when applicable. Tumor volumes and body weights were measured over the course of study, and doses were adjusted by body weight to achieve the proper dose in terms of mg/kg.

[3] = Plasma concentration of Compound 1 in DU145 PK/PD cohort; format: in vivo; settings: for concentration at 72 h: BALA/c nude (sic, BALB/c nude); for concentration at 72 h / concentration at 4 h: mouse, plasma, intraperitoneal; for concentration at 4 h: BALB/c nude
Experimental: as §1, §2, §3, §4

[4] = test system: 22Rv1 prostate xenograft tumors; experiment: 22Rv1 prostate xenograft tumor model, tumor growth inhibition; format: in vivo, mice
Experimental: as §5

[5] = test system: VCAP human prostate cancer tumor cells; experiment: VCaP CRPC CDX model in castrated mice (Example 6), tumor growth inhibition and tolerability; format: in vivo
Experimental: Procedure: The experimental details of the studies, including tumor model, mouse strain, cell number implanted, vehicle used, days of treatment, treatment details, and average tumor size at start of dosing are outlined in Table 7. All study mice were obtained and the studies were conducted at Pharmaron. Each mouse was inoculated subcutaneously on the right flank with the single cell suspension of VCAP human prostate cancer tumor cells (1×10^7) in 0.1 mL with Matrigel (1:1) in DMEM medium with 10% FBS for tumor development. The mice were castrated by removing the testes via a scrotal approach when the tumor volume reached 270 mm^3. After castration, the tumor volume decreased. Treatment started when the mean tumor volume grew back 265 mm^3. Based on tumor volume, mice were randomly assigned to respective groups using a computer-generated randomization procedure and treated according to the study design in Table 8.

[6] = test system: C42B prostate xenograft tumors; experiment: C42B prostate xenograft tumor model, tumor growth inhibition; format: in vivo, mice
Experimental: as §5

[7] = test system: NCI-H660 prostate xenograft tumors; experiment: NCI-H660 prostate xenograft tumor model, tumor growth inhibition; format: in vivo, mice; settings: NCI-H660 CDX model
Experimental: as §5

[8] = VCAP CRPC model, castrated mice, Compound 1 at 10 mg/kg IP BIW, 25 days
[9] = VCAP CRPC model, castrated mice, Compound 1 at 10 mg/kg IP BIW, 25 days, Day 57

COc1cc(-c2cn(C)c(=O)c3cnc(N4CCC4)cc23)cc(OC)c1CN1CCC(CN2CCC3(CC2)CN(c2ccc4c(c2)C(=O)N(C2CCC(=O)NC2=O)C4)C3)CC1 (stereo not shown) [Compound 1, 3-(6-(7-((1-(4-(6-(azetidin-1-yl)-2-methyl-1-oxo-1,2-dihydro-2,7-naphthyridin-4-yl)-2,6-dimethoxybenzyl)piperidin-4-yl)methyl)-2,7-diazaspiro[3.5]nonan-2-yl)-1-oxoisoindolin-2-yl) piperidine-2,6-dione]
BRD9 protein degradation (Western Blot) ([1]; 15 mg/kg single dose IP): statistically and significantly degrade BRD9 protein
BRD9 protein degradation (Western Blot) ([1]; 15 mg/kg three doses IP): statistically and significantly degrade BRD9 protein
correlation of plasma PK with in vivo BRD9 degradation ([1]; DU145 AR-negative prostate CDX model): positively corelates
TGI with Compound 1 3 mg/kg ([2]; PC3 CDX model, AR−, 3 mg/kg BIW IP): 61.7%
TGI ([2]; PC-3 CDX model, Compound 1 3 mg/kg BIW IP): 61.7%
Plasma Concentration of Compound 1 (individual mice) ([3]; 1 mg/kg BIW 3 doses IP, 4 hours post last dose, group 4): 10.9 ng/mL and 14.4 ng/mL and 6.89 ng/mL
Plasma Concentration of Compound 1 (individual mice) ([3]; 1 mg/kg BIW 3 doses IP, 72 hours post last dose, group 4): 2.75 ng/mL and 1.85 ng/mL
difference in PK between a single dose or three doses ([3]; 1 mg/kg IP): No difference in PK
Plasma Concentration of Compound 1 (individual mice) ([3]; 1 mg/kg single dose IP, 4 hours post last dose, group 2): 18.0 ng/mL and 9.37 ng/mL and 8.07 ng/mL
Plasma Concentration of Compound 1 (individual mice) ([3]; 1 mg/kg single dose IP, 72 hours post last dose, group 2, BLOQ = below quantifiable limit of 1.05 ng/mL): 1.59 ng/mL and BLOQ*
Plasma Concentration of Compound 1 (individual mice) ([3]; 15 mg/kg BIW 3 doses IP, 4 hours post last dose, group 5): 63.4 ng/mL and 71.3 ng/mL
Plasma Concentration of Compound 1 (individual mice) ([3]; 15 mg/kg BIW 3 doses IP, 72 hours post last dose, group 5): 10.5 ng/mL and 6.77 ng/mL
PK exposure, single dose vs three doses ([3]; 15 mg/kg IP): 15 mg/kg (single dose) group had better PK exposure than the 15 mg/kg (three doses) group
Plasma Concentration of Compound 1 (individual mice) ([3]; 15 mg/kg single dose IP, 4 hours post last dose, group 3): 132 ng/mL and 92.3 ng/mL
Plasma Concentration of Compound 1 (individual mice) ([3]; 15 mg/kg single dose IP, 72 hours post last dose, group 3): 15.7 ng/mL and 50.2 ng/mL and 28.6 ng/mL
concentration at 72 h ([3]; 1 mg/kg, 1 mg/kg BIW 3 doses IP, 72 hours post last dose, group 4, read-out: Plasma Concentration of Compound 1 (individual mice)): 2.02 ng/mL
concentration at 72 h ([3]; 1 mg/kg, 1 mg/kg BIW 3 doses IP, 72 hours post last dose, group 4, read-out: Plasma Concentration of Compound 1, Mean): 2.21 ng/mL
concentration at 72 h ([3]; 1 mg/kg, 1 mg/kg single dose IP, 72 hours post last dose, group 2, BLOQ = below quantifiable limit of 1.05 ng/mL, read-out: Plasma Concentration of Compound 1 (individual mice)): 1.18 ng/mL
concentration at 72 h ([3]; 1 mg/kg, 1 mg/kg single dose IP, 72 hours post last dose, group 2, read-out: Plasma Concentration of Compound 1, Mean): 1.39 ng/mL
concentration at 72 h ([3]; 15 mg/kg, 15 mg/kg BIW 3 doses IP, 72 hours post last dose, group 5, read-out: Plasma Concentration of Compound 1 (individual mice)): 6.43 ng/mL
concentration at 72 h ([3]; 15 mg/kg, 15 mg/kg BIW 3 doses IP, 72 hours post last dose, group 5, read-out: Plasma Concentration of Compound 1, Mean): 7.9 ng/mL
concentration at 72 h ([3]; 15 mg/kg, 15 mg/kg single dose IP, 72 hours post last dose, group 3, read-out: Plasma Concentration of Compound 1, Mean): 31.5 ng/mL
concentration at 4 h ([3]; 1 mg/kg, 1 mg/kg BIW 3 doses IP, 4 hours post last dose, group 4, read-out: Plasma Concentration of Compound 1, Mean): 10.8 ng/mL
concentration at 4 h ([3]; 1 mg/kg, 1 mg/kg single dose IP, 4 hours post last dose, group 2, read-out: Plasma Concentration of Compound 1, Mean): 11.8 ng/mL
concentration at 4 h ([3]; 15 mg/kg, 15 mg/kg BIW 3 doses IP, 4 hours post last dose, group 5, read-out: Plasma Concentration of Compound 1 (individual mice)): 82.9 ng/mL
concentration at 4 h ([3]; 15 mg/kg, 15 mg/kg BIW 3 doses IP, 4 hours post last dose, group 5, read-out: Plasma Concentration of Compound 1, Mean): 72.5 ng/mL
concentration at 4 h ([3]; 15 mg/kg, 15 mg/kg single dose IP, 4 hours post last dose, group 3, read-out: Plasma Concentration of Compound 1 (individual mice)): 147 ng/mL
concentration at 4 h ([3]; 15 mg/kg, 15 mg/kg single dose IP, 4 hours post last dose, group 3, read-out: Plasma Concentration of Compound 1, Mean): 124 ng/mL
exposures in plasma, in words ([3]; DU145 PK/PD cohort, 1 and 15 mg/kg IP, 4 h and 72 h post last dose): time and dose dependent exposures
exposure difference between a single dose and three doses ([3]; at each dose level (1 and 15 mg/kg IP)): no obvious exposure difference
TGI with Compound 1 3 mg/kg ([4]; 22RV1 CDX model, AR V7+, 3 mg/kg BIW IP): 73.2%
tumor growth inhibition, in words ([4]; 22RV1 xenograft, Compound 1 3 mg/kg BIW IP, enzalutamide 30 mg/kg QD oral): modest tumor growth inhibition which was less than the TGI provided by enzalutamide treatment
TGI ([4]; 22Rv1 CDX model, Compound 1 3 mg/kg BIW IP, enzalutamide 30 mg/kg QD oral): 73.2%
animals found dead at the late stage of the treatment period ([5]; Compound 1 10 mg/kg, enzalutamide 30 mg/kg, deaths suspected due to castration surgery): One
Tumor Growth % on Day 57 [5, 8]: 267 ± 20%
Tumor Size on Day 57 [5, 8]: 697 ± 44 mm3
T/C [5, 9]: 86.2%
TGI [5, 9]: 13.8%
TGI ([5]; VCaP CRPC model, castrated mice, Compound 1 10 mg/kg, enzalutamide 30 mg/kg, day 57 after tumor inoculation): 13.8%
TGI with Compound 1 3 mg/kg ([6]; C42B CDX model, AR+, 3 mg/kg BIW IP): 28.7%
tumor growth inhibition, in words ([6]; C42B xenograft, Compound 1 3 mg/kg BIW IP, enzalutamide 30 mg/kg QD oral): modest tumor growth inhibition which was less than the TGI provided by enzalutamide treatment
TGI with Compound 1 3 mg/kg ([7]; AR−, 3 mg/kg BIW IP): 56.9%
TGI ([7]; Compound 1 3 mg/kg BIW IP): 56.9%
